One assay has as its target T1, wildtype Kras / hSOS1 (Homo sapiens, UniProt P01116).
T1 construct: made in house; host or cells: E. coli BL21 (DE3)
Kind of assay: HTRF assay, wildtype Kras / SOS1 interaction. The settings on record: read-out: IC50 against wildtype Kras. In kind it is binding. In short, it runs like this:
(§1)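 HTRF read-out of GST-tagged K-Ras (mutant or wildtype) binding His-hSOS1, via anti-GST-Eu donor and anti-6His-XL665 acceptor; buffer ~5 mM HEPES pH 7.4, ~150 mM NaCl, ~1 mM DTT, 0.05% BSA, 0.0025% Igepal. Read after ≥~10 min; duplicates, 10 μM to 0.01 μM; IC50 from 665/620 nm ratio.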

The target in assay [1] is GST-tagged K-Ras mutant / His-tagged hSOS1 (Homo sapiens, UniProt P01116). The experiment in a line: HTRF assay, K-Ras mutant / SOS1 interaction. The settings on record: read-out: IC50 against mutant Kras. In kind it is binding. In short, it runs like this:
as §1

Where [2] appears, read: compound nos. 102-196, general methodology of example 5.
Where [3] appears, read: compound nos. 201-213, general methodology of example 5.

Molecules are shown by their SMILES. Like-named read-outs stand apart in the source and are kept apart here. Some results are limits rather than exact numbers.

Sequence of GST-tagged K-Ras mutant / His-tagged hSOS1 (P01116 whole entry G12D, form open): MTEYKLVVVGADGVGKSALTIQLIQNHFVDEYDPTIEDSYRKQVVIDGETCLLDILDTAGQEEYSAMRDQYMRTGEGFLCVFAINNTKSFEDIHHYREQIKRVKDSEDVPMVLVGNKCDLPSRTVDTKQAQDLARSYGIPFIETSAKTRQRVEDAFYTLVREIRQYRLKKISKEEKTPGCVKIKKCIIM
T1 sequence (P01116 1-188 isoform P01116-2): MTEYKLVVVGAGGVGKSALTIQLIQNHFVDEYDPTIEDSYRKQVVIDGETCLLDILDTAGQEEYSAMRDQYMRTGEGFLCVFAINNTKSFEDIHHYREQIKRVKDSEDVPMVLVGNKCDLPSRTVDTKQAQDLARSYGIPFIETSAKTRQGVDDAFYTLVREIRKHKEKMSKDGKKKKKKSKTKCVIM

For the compound `Fc1c(-c2ccccc2-c2ccccc2)c(Cl)cc2c(N3CCCCCC3)nc(OCC34CCCN3CCC4)nc12` [Compound 603, 7-([1,1′-biphenyl]-2-yl)-4-(azepan-1-yl)-6-chloro-8-fluoro-2-((tetrahydro-1H-pyrrolizin-7a(5H)-yl)meth-oxy)quinazoline], the IC50 (at wildtype Kras / hSOS1 (compound nos. 401-703); in assay [1] (compound nos. 401-703)) was over 500 nM each time.

Turning to `N#Cc1c(N)sc2c(F)ccc(-c3c(Cl)cc4c(N5CC6CCC(C5)O6)nc(OC[C@@]56CCCN5C[C@H](F)C6)nc4c3F)c12` [Compound 473, 4-(4-(8-oxa-3-azabicyclo-[3.2.1]octan-3-yl)-6-chloro-8-fluoro-2-(((2R,7aS)-2-fluorotetrahydro-1H-pyrrol-izin-7a(5H)-yl)methoxy)-quinazolin-7-yl)-2-amino-7-fluorobenzo[b]thiophene-3-carbonitrile], the half-maximal inhibitory concentration (IC50) (on wildtype Kras / hSOS1 (compound nos. 401-703); in assay [1] (compound nos. 401-703)) was under 500 nM in each case.

Consider `Fc1c(-c2cccc3c2C2CC2C3)c(Cl)cc2c(N3CC4CCC(C3)N4)nc(OC[C@@]34CCCN3C[C@H](F)C4)nc12` (stereo partly drawn) [Compound 422, 4-(3,8-diazabicyclo[3.2.1]-octan-3-yl)-6-chloro-8-fluoro-2-(((2R,7aS)-2-fluoro-tetrahydro-1H-pyrrolizin-7a(5H)-yl)methoxy)-7-(1,1a,6,6a-tetrahydrocyclo-propa[a]inden-2-yl)quin-azoline], for which the half-inhibitory concentration (IC50) on wildtype Kras / hSOS1 (compound nos. 401-703) was under 500 nM; in assay [1] (compound nos. 401-703) it was over 500 nM.

For the compound `NCC1C2CCC1CN(c1nc(OCC34CCCN3CCC4)nc3c(F)c(-c4ccc(F)c5sc(N)nc45)c(Cl)cc13)C2` [Compound 406, 4-(4-((1R,5S,8r)-8-(amino-methyl)-3-azabicyclo[3.2.1]-octan-3-yl)-6-chloro-8-fluoro-2-((tetrahydro-1H-pyrrolizin-7a(5H)-yl)meth-oxy)quinazolin-7-yl)-7-fluorobenzo[d]thiazol-2-amine], the half-maximal inhibitory concentration (IC50) (on wildtype Kras / hSOS1 (compound nos. 401-703); in assay [1] (compound nos. 401-703)) was under 500 nM in each case.

Regarding `Fc1c(Br)c(Cl)cc2c(N3CC4CCC(C3)N4)nc(OC[C@@]34CCCN3C[C@H](F)C4)nc12` [Compound 479, 4-(3,8-diazabicyclo[3.2.1]-octan-3-yl)-7-bromo-6-chloro-8-fluoro-2-(((2R,7aS)-2-fluorotetra-hydro-1H-pyrrolizin-7a(5H)-yl)methoxy)quin-azoline], the IC50 at wildtype Kras / hSOS1 (compound nos. 401-703) is under 500 nM; in assay [1] (compound nos. 401-703), over 500 nM.

`Nc1nc2c(-c3c(Cl)cc4c(N5C6CCNCC5CC6)nc(OC[C@@]56CCCN5C[C@H](F)C6)nc4c3F)ccc(F)c2s1` (stereo partly drawn) [Compound 568, 4-(4-(3,9-diazabicyclo-[4.2.1]-nonan-9-yl)-6-chloro-8-fluoro-2-(((2R,7aS)-2-fluorotetrahydro-1H-pyrrol-izin-7a(5H)-yl)methoxy)-quinazolin-7-yl)-7-fluoro-benzo[d]thiazol-2-amine]: the values for the IC50 (at wildtype Kras / hSOS1 (compound nos. 401-703); in assay [1] (compound nos. 401-703)) were over 500 nM and under 500 nM, respectively.

As to `Cc1ccc(C#N)cc1-c1c(Cl)cc2c(N3CC4CCC(C3)N4)nc(OCC34CCCN3CCC4)nc2c1F` [Compound 510, 3-(4-(3,8-diazabicyclo-[3.2.1]octan-3-yl)-6-chloro-8-fluoro-2-((tetrahydro-1H-pyrrolizin-7a(5H)-yl)meth-oxy)quinazolin-7-yl)-4-methylbenzonitrile], the IC50 (at wildtype Kras / hSOS1 (compound nos. 401-703); in assay [1] (compound nos. 401-703)) was over 500 nM in each case.

Regarding `CN1CCCC1CCn1nc(N2CC3CCC(C2)N3)c2ccc(-c3cc(O)cc4ccccc34)c(F)c2c1=O` (stereo not drawn) [Compound 529, 4-(3,8-diazabicyclo[3.2.1]-octan-3-yl)-8-fluoro-7-(3-hydroxynaphthalen-1-yl)-2-(2-(1-methylpyrrolidin-2-yl)ethyl)phthalazin-1(2H)-one], the half-maximal inhibitory concentration (IC50) (at wildtype Kras / hSOS1 (compound nos. 401-703); in assay [1] (compound nos. 401-703)) was over 500 nM each time.

With `CN1CCC[C@H]1COc1nc(N2CCCC(Cl)CC2)c2cc(Cl)c(-c3cccc4sc(N)nc34)c(F)c2n1` (stereo partly drawn) [Compound 593, 4-(6-chloro-4-(4-chloro-azepan-1-yl)-8-fluoro-2-(((S)-1-methylpyrrolidin-2-yl)methoxy)quinazolin-7-yl)benzo[d]thiazol-2-amine], the values for the half-inhibitory concentration (IC50) (at wildtype Kras / hSOS1 (compound nos. 401-703); in assay [1] (compound nos. 401-703)) were over 500 nM and under 500 nM, respectively.

For `CN1CCC[C@H]1COc1nc(N2CCNC(=O)C(F)(F)C2)c2cc(Cl)c(-c3ccc(F)c4sc(N)nc34)c(F)c2n1` [Compound 112, 1-(7-(2-amino-7-fluoro-benzo[d]thiazol-4-yl)-6-chloro-8-fluoro-2-(((S)-1-methylpyrrolidin-2-yl)meth-oxy)quinazolin-4-yl)-6,6-difluoro-1,4-diazepan-5-one], the IC50 (at wildtype Kras / hSOS1 (setting [2]); in assay [1] (setting [2])) was under 500 nM in each case.

With `Nc1nc2c(-c3c(Cl)cc4c(N5CCCCC(N)C5)nc(OC[C@@]56CCCN5C[C@H](F)C6)nc4c3F)ccc(F)c2s1` (stereo partly drawn) [Compound 543, 4-(4-(3-aminoazepan-1-yl)-6-chloro-8-fluoro-2-(((2R,7aS)-2-fluorotetra-hydro-1H-pyrrolizin-7a(5H)-yl)methoxy)quinazolin-7-yl)-7-fluorobenzo[d]thiazol-2-amine], the IC50 on wildtype Kras / hSOS1 (compound nos. 401-703) was over 500 nM; in assay [1] (compound nos. 401-703), under 500 nM.

With `CN1CCC[C@H]1COc1nc(N2CCCC(C(N)=O)CC2)c2cc(Cl)c(-c3cccc4sc(N)nc34)c(F)c2n1` (stereo partly drawn) [Compound 427, 1-(7-(2-aminobenzo[d]-thiazol-4-yl)-6-chloro-8-fluoro-2-(((S)-1-methylpyr-rolidin-2-yl)methoxy)quin-azolin-4-yl)azepane-4-carboxamide], the IC50 (on wildtype Kras / hSOS1 (compound nos. 401-703); in assay [1] (compound nos. 401-703)) was under 500 nM in each case.

Consider `Nc1nc2c(-c3c(Cl)cc4c(N5CCCC(O)CC5)nc(OC[C@@]56CCCN5C[C@H](F)C6)nc4c3F)ccc(F)c2s1` (stereo partly drawn) [Compound 407, 1-(7-(2-amino-7-fluoro-benzo[d]thiazol-4-yl)-6-chloro-8-fluoro-2-(((2R,7aS)-2-fluorotetrahydro-1H-pyr-rolizin-7a(5H)-yl)methoxy)-quinazolin-4-yl)azepan-4-ol], for which the IC50 (on wildtype Kras / hSOS1 (compound nos. 401-703); in assay [1] (compound nos. 401-703)) was under 500 nM each time.

In the case of `Cc1ccc2cnn(C)c2c1-c1ccc2c(N3CC4CCC(C3)N4)nc(OC[C@@]34CCCN3C[C@H](F)C4)nc2c1F` [Compound 478, 4-(3,8-diazabicyclo-[3.2.1]octan-3-yl)-7-(1,6-dimethyl-1H-indazol-7-yl)-8-fluoro-2-(((2R,7aS)-2-fluorotetrahydro-1H-pyrrolizin-7a(5H)-yl)meth-oxy)quinazoline], the 50% inhibitory concentration (IC50) was under 500 nM at wildtype Kras / hSOS1 (compound nos. 401-703) and over 500 nM in assay [1] (compound nos. 401-703).

Regarding `CN1CCCC1CCn1nc(N2CC3CCC(C2)N3)c2ccc(-c3ccc(F)c4sc(N)nc34)c(F)c2c1=O` (stereo not drawn) [Compound 420, 7-(2-amino-7-fluorobenzo-[d]thiazol-4-yl)-4-(3,8-diazabicyclo[3.2.1]octan-3-yl)-8-fluoro-2-(2-(1-methyl-pyrrolidin-2-yl)ethyl)phthal-azin-1(2H)-one], the IC50 at wildtype Kras / hSOS1 (compound nos. 401-703) was under 500 nM; in assay [1] (compound nos. 401-703), over 500 nM.

On to `CN1CCC[C@H]1COc1nc(N2CCNCC(F)(F)C2)c2cc(Cl)c(-c3cccc4ccc(N)nc34)c(F)c2n1` [Compound 183, 8-(6-chloro-4-(6,6-difluoro-1,4-diazepan-1-yl)-8-fluoro-2-(((S)-1-methylpyrrolidin-2-yl)methoxy)quinazolin-7-yl)quinolin-2-amine], for which the IC50 (on wildtype Kras / hSOS1 (setting [2]); in assay [1] (setting [2])) was over 500 nM each time.

As to `Nc1nc2c(-c3c(Cl)cc4c(N5CC6CCC(C5)N6)nc(OC[C@@]56CCCN5C[C@H](F)C6)nc4c3F)cccc2o1` [Compound 204, 4-(4-((1R,5S)-3,8-diaza-bicyclo[3.2.1]octan-3-yl)-6-chloro-8-fluoro-2-(((2R,7aS)-2-fluorotetra-hydro-1H-pyrrolizin-7a(5H)-yl)methoxy)quin-azolin-7-yl)benzo[d]-oxazol-2-amine], the IC50 (at wildtype Kras / hSOS1 (setting [3]); in assay [1] (setting [3])) was under 1500 nM throughout.

Consider `CN1CCC[C@H]1COc1nc(N2CCCC(C3CC3)CC2)c2cc(Cl)c(-c3cccc4sc(N)nc34)c(F)c2n1` (stereo partly drawn) [Compound 453, 4-(6-chloro-4-(4-cycloprop-propylazepan-1-yl)-8-fluoro-2-(((S)-1-methylpyrrolidin-2-yl)methoxy)quinazolin-7-yl)benzo[d]thiazol-2-amine], for which the values for the IC50 (on wildtype Kras / hSOS1 (compound nos. 401-703); in assay [1] (compound nos. 401-703)) were under 500 nM and over 500 nM, respectively.

Turning to `CN1CCC[C@H]1COc1nc(N2CCCNCC(F)(F)C2)c2cc(Cl)c(-c3cccc4sc(N)nc34)c(F)c2n1` [Compound 127, 4-(6-chloro-4-(3,3-difluoro-1,5-diazocan-1-yl)-8-fluoro-2-(((S)-1-methylpyrrolidin-2-yl)methoxy)quinazolin-7-yl)benzo[d]thiazol-2-amine], the IC50 (at wildtype Kras / hSOS1 (setting [2]); in assay [1] (setting [2])) was under 500 nM in each case.

As for `Nc1nc2c(-c3c(Cl)cc4c(N5C[C@H]6CC[C@@H](C5)N6)nc(OC[C@@]56CCCN5C[C@H](F)C6)nc4c3F)ccc(F)c2s1` [Compound 206, 4-(4-((1R,5S)-3,8-diaza-bicyclo[3.2.1]octan-3-yl)-6-chloro-8-fluoro-2-(((2R,7aS)-2-fluorotetra-hydro-1H-pyrrolizin-7a(5H)-yl)methoxy)quinazolin-7-yl)-7-fluorobenzo[d]thiazol-2-amine], the IC50 (at wildtype Kras / hSOS1 (setting [3]); in assay [1] (setting [3])) was under 1500 nM throughout.

Consider `Fc1c(Br)ccc2c(N3CC4CCC(C3)N4)nc(OC[C@@]34CCCN3C[C@H](F)C4)nc12` [Compound 537, 4-(3,8-diazabicyclo[3.2.1]-octan-3-yl)-7-bromo-8-fluoro-2-(((2R,7aS)-2-fluorotetrahydro-1H-pyrrol-izin-7a(5H)-yl)methoxy)-quinazoline], for which the IC50 (on wildtype Kras / hSOS1 (compound nos. 401-703); in assay [1] (compound nos. 401-703)) was over 500 nM in each case.

(Values after patent US20240254129A1, “HETEROCYCLIC COMPOUNDS AND USES THEREOF” (Kumquat Biosciences Inc., priority 2021, published 2024).)
